Reference: US20230143352A1 (Humanetics Corporation, priority 2020, published 2023)

Legend:
[1] = test system: NF-κB, pro-inflammatory cytokines, pro-fibrotic proteins; details: cited from earlier work
[2] = test system: radiation-induced fibrosis; details: rat RiED model; treatment starting two hours after radiation exposure; cited from earlier work
[3] = test system: therapy-induced pneumonitis and pulmonary fibrosis; test: Genistein phase 1b/2a trial in NSCLC patients on chemoradiotherapy: toxicity and adverse events; type: in vivo, human
Method: FIGS. 3A and 3B are graphs plotting pulmonary adverse event incidence rates in non-small cell lung cancer (NSCLC) clinical trials.
The drug was added to patients' chemoradiotherapy regimens to reduce the incidence of therapy-induced pneumonitis and pulmonary fibrosis. […] Patients ingested the suspension once daily for one week prior to chemoradiotherapy, and also while on concurrent chemoradiotherapy for a total of six to eight weeks.

[4] = test system: normal lung tissue (WTLI-irradiated); test: A549 mouse xenograft model with WTLI: radioprotection of normal lung tissue; type: in vivo, athymic CD1 nu/nu mice; details: A549 xenograft mice
From the text: FIG. 2A is an image of a mouse in which A549 cells were implanted subcutaneously, followed by treatment with 12.5 Gy of radiotherapy (RT). […] The white box indicates the path of radiation, and the circle indicates the tumor site.
Other nonclinical studies focused on protection of the lungs in the context of cancer radiotherapy. A549 lung cancer cells were implanted subcutaneously in athymic CD1 nu/nu mice. The location of the implant was specific, so that a single dose of WTLI would hit the tumor and the normal lung tissue (FIG. 2A). Mice were then administered a nanoparticulate genistein suspension or vehicle control by daily oral gavage for seven days prior to WTLI and continuing until the end of the study.

SARS-CoV-2 = test: K18-hACE2 transgenic mouse model of SARS-CoV-2 infection; type: in vivo
[5] = several pharmaceutically acceptable solvents; cited from earlier work
[6] = test system: radiation-induced edema and fibrosis in the lung; test: Mouse model of DEARE-lung: whole thoracic lung irradiation (WTLI) followed by oral genistein suspension; type: in vivo; details: WTLI mice
Method: FIG. 1A includes representative images of animal lungs stained with Masson's Trichrome. Images on the left are whole-lung, and images on the right are high magnification (10×). […] Error bars ±SEM.
Animals were treated for two, four, or six weeks.

[7] = daily oral gavage from 7 days before WTLI to end of study
[8] = K18-hACE2 Mouse Study 2, oral BID 7 d

O=c1c(-c2ccc(O)cc2)coc2cc(O)cc(O)c12 [genistein, 5,7-dihydroxy-3-(4-hydroxyphenyl)-4H-chromen-4-one]
expression of NF-κB, pro-inflammatory cytokines (IL-1, IL-6, TNFα) and pro-fibrotic proteins (TGFβ, MMP-2, MMP-9, LDH) [1]: reduce expression
fibrosis [2]: significantly reduced fibrosis
patients who developed pulmonary fibrosis ([3]; 21 NSCLC patients treated, to date, 9% in historical study): none
occurrences of pulmonary fibrosis one year later ([3]; NSCLC patients, one year later): no occurrences of pulmonary fibrosis
severity of dyspnea ([3]; NSCLC patients, vs historical trial): less severe
wet lung weight (indicator of pneumonitis) ([4]; WTLI, vs vehicle): reduced wet lung weight
congestion and cellular infiltrate, H&E [4, 7]: reduced congestion and minimal cellular infiltrate
normal lung tissue remodeling (thickening of the septal wall), H&E [4, 7]: marked reduction in normal lung tissue remodeling
lung pathology (SARS-CoV-2; [8]): improved lung pathology
pro-inflammatory cytokine expression (SARS-CoV-2; [8]): reduced pro-inflammatory cytokine expression
survival (SARS-CoV-2; mouse, in vivo, po): increase in survival
solubility [5]: low to virtually no solubility
immune infiltrate, edema and fibrosis of the lungs (histopathology and wet lung weight) ([6]; daily from 24 hours after irradiation for two, four or six weeks, vs controls): significantly less immune infiltrate, edema, and fibrosis of the lungs
levels of fibrosis (Masson's Trichrome staining, Ashcroft scoring) ([6]; treatment started 24, 72 or 120 hours (within five days) after radiation): reduction in pulmonary fibrosis
